In patent publication US20220064167A1, “IMIDAZO-PYRAZOLE CARBOXAMIDE DERIVATIVES AS ANTICANCER AGENTS AND THE SYNTHESIS THEREOF” (AVIDIN KFT., priority 2018, published 2022):

Key:
[1] = system: mouse mammary carcinoma 4T1; assay: resazurin viability assay, 72 h (Table 1); type: cell-based; details: 72h incubation, 156 nM-100 μM
Text: (§1) In our experiments three different cell lines were used. Cells were purchased from the American Type Culture Collection (ATCC, Manassas, Va., USA). The human breast adenocarcinoma cell line, MCF-7 cells were maintained in Dulbecco's Modified Eagle Medium/Nutrient Mixture F-12 (DMEM/F12) 10% fetal calf serum (FCS, Gibco) and mouse mammary carcinoma 4T1 and human promyelocytic leukemia, HL-60 cells were maintained in Roswell Park Memorial Institute 1640 medium (RPMI-1640) 10% FCS. Media were supplemented with 2 mM GlutaMAX, and 100 U/mL penicillin, 100 μg/mL streptomycin (Life Technologies, Carlsbad, Calif., USA). Cell cultures were maintained at 37° C. in a humidified incubator in an atmosphere of 5% CO2 (Sanyo, Japan).
(§2) For viability assays cells were seeded in 96 well plates (MCF7 and 4T1: 6000, HL60: 120.000 cells/well) and incubated overnight. Compounds were dissolved in dimethyl sulfoxide (DMSO). Cells were treated with an increasing concentration of compounds having the general formula (I.) (156 nM-100 μM). Cell viability was determined after 72h incubation. Resazurin reagent (Sigma-Aldrich) was dissolved in PBS (pH 7.4) at 0.15 mg/ml concentration, sterile filtered (0.22 μm, Merck Millipore) and aliquoted at −20° C. Resazurin reagent (Sigma-Aldrich) was added at a final concentration of 25 μg/ml. After 2 hours incubation at 37° C. 5% CO2 fluorescence (530 nm excitation/580 nm emission) was recorded on a multimode microplate reader (Cytofluor4000, PerSeptive Biosytems). Viability was calculated with relation to untreated control cells and blank wells containing media without cells. IC50 values (50% inhibiting concentration) were calculated by GraphPad Prism® 5 (La Jolla, Calif., USA).

[2] = system: human breast adenocarcinoma cell line, MCF-7; assay: resazurin viability assay, 72 h (Table 1); type: cell-based; details: MCF7, 72h incubation, 156 nM-100 μM
Text: as §1, §2

[3] = system: human promyelocytic leukemia, HL-60 cells; assay: resazurin viability assay, 72 h (Table 1); type: cell-based; details: 72h incubation, 156 nM-100 μM
Text: as §1, §2

Compound	IC50 [1]	IC50 [2]	IC50 [3]	melting point
CC(C)(C)Nc1c(C(C)(C)C)[nH]c2c(C(N)=O)cnn12 [Example 19, 2-(Tert-butyl)-3-(tert-butylamino)-1H-imidazo[1,2-b]pyrazole-7-carboxamide]	23.9 µM	27.9 µM	4.99 µM	221 °C
CC(C)(C)CC(C)(C)Nc1c(C(C)(C)C)[nH]c2c(C(=O)Nc3cccc(C(F)(F)F)c3)cnn12 [Example 46, 2-(Tert-butyl)-N-(3-(trifluoromethyl)phenyl)-3-((2,4,4-trimethylpentan-2-yl)amino)-1H-imidazo[1,2-b]pyrazole-7-carboxamide]	35.4 µM	> 50 µM	11.4 µM	180 °C
Cc1cc(C)cc(NC(=O)c2cnn3c(NC(C)(C)CC(C)(C)C)c(C(C)(C)C)[nH]c23)c1 [Example 41, 2-(Tert-butyl)-N-(3,5-dimethylphenyl)-3-((2,4,4-trimethylpentan-2-yl)amino)-1H-imidazo[1,2-b]pyrazole-7-carboxamide]				180 to 181 °C
CC(C)(C)CC(C)(C)Nc1c(C(C)(C)C)[nH]c2c(C(=O)Nc3ccncc3)cnn12 [Example 37, 2-(Tert-butyl)-N-(pyridin-4-yl)-3-((2,4,4-trimethylpentan-2-yl)amino)-1H-imidazo[1,2-b]pyrazole-7-carboxamide]	4.34 µM	2.55 µM	2.71 µM	185 to 186 °C
CC(C)(C)CC(C)(C)Nc1c(C(C)(C)C)[nH]c2c(C(=O)NC3CC3)cnn12 [Example 31, 2-(Tert-butyl)-N-cyclopropyl-3-((2,4,4-trimethylpentan-2-yl)amino)-1H-imidazo[1,2-b]pyrazole-7-carboxamide]	4.01 µM	1.69 µM	1.61 µM	161 °C
COc1ccc(NC(=O)c2cnn3c(NC(C)(C)CC(C)(C)C)c(C(C)(C)C)[nH]c23)cc1 [Example 43, 2-(Tert-butyl)-N-(4-methoxyphenyl)-3-((2,4,4-trimethylpentan-2-yl)amino)-1H-imidazo[1,2-b]pyrazole-7-carboxamide]	24.7 µM	17.8 µM	1.11 µM	187 to 188 °C
CC(C)(C)CC(C)(C)Nc1c(C2CC2)[nH]c2c(C(N)=O)cnn12 [Example 23, 2-Cyclopropyl-3-((2,4,4-trimethylpentan-2-yl)amino)-1H-imidazo[1,2-b]pyrazole-7-carboxamide]	> 50 µM	> 50 µM	5.49 µM	205 to 207 °C
CC(C)(C)c1[nH]c2c(C(N)=O)cnn2c1Nc1ccc(F)cc1 [Example 21, 2-(Tert-butyl)-3-((4-fluorophenyl)amino)-1H-imidazo[1,2-b]pyrazole-7-carboxamide]	> 50 µM	40.5 µM	24.4 µM	249 to 250 °C
CSc1ccc(NC(=O)c2cnn3c(NC(C)(C)CC(C)(C)C)c(C(C)(C)C)[nH]c23)cc1 [Example 56, 2-(Tert-butyl)-N-(4-(methylthio)phenyl)-3-((2,4,4-trimethylpentan-2-yl)amino)-1H-imidazo[1,2-b]pyrazole-7-carboxamide]	> 50 µM	21.9 µM	3.93 µM	169 to 170 °C
NC(=O)c1cnn2c(NC3CCCCC3)c(-c3ccccc3)[nH]c12 [Example 4, 3-(Cyclohexylamino)-2-phenyl-1H-imidazo[1,2-b]pyrazole-7-carboxamide]				240 to 241 °C
CC(C)(C)CC(C)(C)Nc1c(C(C)(C)C)[nH]c2c(C(=O)Nc3ccc(Cl)cc3)cnn12 [Example 51, 2-(Tert-butyl)-N-(4-chlorophenyl)-3-((2,4,4-trimethylpentan-2-yl)amino)-1H-imidazo[1,2-b]pyrazole-7-carboxamide]	30.7 µM	29.3 µM	3.05 µM	
Cc1nn2c(NC(C)(C)CC(C)(C)C)c(C(C)(C)C)[nH]c2c1C(=O)Nc1ccc(F)cc1 [Example 74, 2-(Tert-butyl)-N-(4-fluorophenyl)-6-methyl-3-((2,4,4-trimethylpentan-2-yl)amino)-1H-imidazo[1,2-b]pyrazole-7-carboxamide]				179 °C
CC(C)c1ccc(NC(=O)c2cnn3c(NC(C)(C)CC(C)(C)C)c(C(C)(C)C)[nH]c23)cc1 [Example 42, 2-(Tert-butyl)-N-(4-isopropylphenyl)-3-((2,4,4-trimethylpentan-2-yl)amino)-1H-imidazo[1,2-b]pyrazole-7-carboxamide]				155 to 156 °C
CC(C)(C)Nc1c(-c2ccc(F)c(F)c2)[nH]c2c(C(N)=O)cnn12 [Example 13, 3-(Tert-butylamino)-2-(3,4-difluorophenyl)-1H-imidazo[1,2-b]pyrazole-7-carboxamide]				256 to 258 °C
COC(=O)CNc1c(-c2c(OC)cc(OC)cc2OC)[nH]c2c(C(N)=O)cnn12 [Example 9, Methyl 2-((7-carbamoyl-2-(2,4,6-trimethoxyphenyl)-1H-imidazo[1,2-b]pyrazol-3-yl)amino)acetate]				226 to 227 °C
CC(C)(C)CC(C)(C)Nc1c(C(C)(C)C)[nH]c2c(C(=O)Nc3ccccc3C(F)(F)F)cnn12 [Example 45, 2-(Tert-butyl)-N-(2-(trifluoromethyl)phenyl)-3-((2,4,4-trimethylpentan-2-yl)amino)-1H-imidazo[1,2-b]pyrazole-7-carboxamide]				106 °C
COc1ccc(Nc2c(-c3ccccc3)[nH]c3c(C(N)=O)cnn23)cc1 [Example 5, 3-((4-Methoxyphenyl)amino)-2-phenyl-1H-imidazo[1,2-b]pyrazole-7-carboxamide]				229 to 231 °C
COC(=O)CNc1c(-c2ccccc2)[nH]c2c(C(N)=O)cnn12 [Example 3, Methyl 2-((7-carbamoyl-2-phenyl-1H-imidazo[1,2-b]pyrazol-3-yl)amino)acetate]				209 to 210 °C
CC(C)(C)CC(C)(C)Nc1c(C(C)(C)C)[nH]c2c(C(=O)NC(C)(C)C)cnn12 [Example 30, N,2-Di-tert-butyl-3-((2,4,4-trimethylpentan-2-yl)amino)-1H-imidazo[1,2-b]pyrazole-7-carboxamide]				177 to 178 °C
CC(C)(C)CC(C)(C)Nc1c(C(C)(C)C)[nH]c2c(C(=O)NCc3ccc(F)cc3)cnn12 [Example 71, 2-(Tert-butyl)-N-(4-fluorobenzyl)-3-((2,4,4-trimethylpentan-2-yl)amino)-1H-imidazo[1,2-b]pyrazole-7-carboxamide]				163 to 164 °C
CC(C)(C)CC(C)(C)Nc1c(C(C)(C)C)[nH]c2c(C(=O)NC3CCCC3)cnn12 [Example 32, 2-(Tert-butyl)-N-cyclopentyl-3-((2,4,4-trimethylpentan-2-yl)amino)-1H-imidazo[1,2-b]pyrazole-7-carboxamide]				182 to 183 °C
CCCCCCCc1[nH]c2c(C(N)=O)cnn2c1NC(C)(C)C [Example 17, 3-(Tert-butylamino)-2-heptyl-1H-imidazo[1,2-b]pyrazole-7-carboxamide]				203 to 204 °C
CC(C)(C)CC(C)(C)Nc1c(C(C)(C)C)[nH]c2c(C(=O)Nc3ccc(F)cn3)cnn12 [Example 72, 2-(Tert-butyl)-N-(5-fluoropyridin-2-yl)-3-((2,4,4-trimethylpentan-2-yl)amino)-1H-imidazo[1,2-b]pyrazole-7-carboxamide]				140 °C
CC(C)(C)CC(C)(C)Nc1c(-c2cccnc2)[nH]c2c(C(N)=O)cnn12 [Example 14, 2-(Pyridin-3-yl)-3-((2,4,4-trimethylpentan-2-yl)amino)-1H-imidazo[1,2-b]pyrazole-7-carboxamide]				226 to 228 °C
COc1ccc(NC(=O)c2cnn3c(NC(C)(C)CC(C)(C)C)c(C(C)(C)C)[nH]c23)c(OC)c1 [Example 44, 2-(Tert-butyl)-N-(2,4-dimethoxyphenyl)-3-((2,4,4-trimethylpentan-2-yl)amino)-1H-imidazo[1,2-b]pyrazole-7-carboxamide]				127 °C
CC(C)(C)CC(C)(C)Nc1c(-c2ccccc2)[nH]c2c(C(N)=O)cnn12 [Example 2, 2-Phenyl-3-((2,4,4-trimethylpentan-2-yl)amino)-1H-imidazo[1,2-b]pyrazole-7-carbox-amide]				154 to 156 °C
CC(C)(C)CC(C)(C)Nc1c(C(C)(C)C)[nH]c2c(C(=O)Nc3ccc(F)nc3)cnn12 [Example 73, 2-(Tert-butyl)-N-(6-fluoropyridin-3-yl)-3-((2,4,4-trimethylpentan-2-yl)amino)-1H-imidazo[1,2-b]pyrazole-7-carboxamide]				177 to 178 °C
CC(C)(C)Nc1c(-c2ccccc2)[nH]c2c(C(N)=O)cnn12 [Example 1, 3-(Tert-butylamino)-2-phenyl-1H-imidazo[1,2-b]pyrazole-7-carboxamide]				246 to 248 °C
